# Laboratory results published in patent US20240132484A1, “BROAD SPECTRUM ANTIVIRAL COMPOUNDS TARGETING THE SKI COMPLEX” (priority 2020, published 2024).
# Columns and labels:
# SARS2 = assay type: cell-based, SARS-CoV-2
smiles,measurement,setting,value
COc1ccc(-c2[nH]ncc2C(=O)NC2CCCCCC2)cc1OC [SILCS60],Percentage Inhibition Average 1 μM,"SARS2; SARS2, 1 μM",20.62%
same,Screening data (Relative infection to DMSO controls) Average 1 μM,"SARS2; SARS2, 1 μM, 100=DMSO control",79.38
same,Percentage Inhibition Average 5 μM,"SARS2; SARS2, 5 μM",26.35%
same,Screening data (Relative infection to DMSO controls) Average 5 μM,"SARS2; SARS2, 5 μM, 100=DMSO control",73.65
same,Percentage Inhibition Average 10 μM,"SARS2; SARS2, 10 μM",26.47%
same,Screening data (Relative infection to DMSO controls) Average 10 μM,"SARS2; SARS2, 10 μM, 100=DMSO control",73.53
same,Percentage Inhibition Average 25 μM,"SARS2; SARS2, 25 μM",1.46%
same,Screening data (Relative infection to DMSO controls) Average 25 μM,"SARS2; SARS2, 25 μM, 100=DMSO control",98.54
same,Percentage Inhibition Average 50 μM,"SARS2; SARS2, 50 μM",−22.52%
same,Screening data (Relative infection to DMSO controls) Average 50 μM,"SARS2; SARS2, 50 μM, 100=DMSO control",122.52
same,Average (relative infection to DMSO over the 5 tested concentrations),"SARS2; SARS2, average over 1 to 50 uM, 100=DMSO control",89.52
same,"Relative cell count to DMSO controls, Average 1 μM","cells (nuclei count); 1 μM, toxicity data, 100=DMSO control",111.59
same,"Relative cell count to DMSO controls, Average 5 μM","cells (nuclei count); 5 μM, toxicity data, 100=DMSO control",110.17
same,"Relative cell count to DMSO controls, Average 10 μM","cells (nuclei count); 10 μM, toxicity data, 100=DMSO control",109.31
same,"Relative cell count to DMSO controls, Average 25 μM","cells (nuclei count); 25 μM, toxicity data, 100=DMSO control",96.61
same,"Relative cell count to DMSO controls, Average 50 μM","cells (nuclei count); 50 μM, toxicity data, 100=DMSO control",85.19
same,"Relative cell count to DMSO controls, Average (for correlation analysis)",cells (nuclei count); average value over the 5 tested concentrations (1 to 50 uM),102.57
